Assay results taken from patent US4943587A, “Hydroxamate derivatives of selected nonsteroidal antiinflammatory acyl residues and their use for cyclooxygenase and 5-lipoxygenase inhibition” (Warner-Lambert Company, priority 1988, dated 1990).

Tests used:
Cyclooxygenase [1] = target: T1, Cyclooxygenase (Rattus norvegicus, UniProt Q63921); experiment: ARBC: RBL-1 whole cell cyclooxygenase assay (inhibition of PGF2α formation); assay type: cell-based; conditions: RBL-1 cells, A23187 5 μM; for % inhibition ARBC (RBL whole cell cyclooxygenase, PGF2α inhibition): @ 32 (μM); for IC50: PGF2α formation
T1 construct: host or cells: RBL-1 (rat basophilic leukemia)
T1 sequence (Q63921 27-602): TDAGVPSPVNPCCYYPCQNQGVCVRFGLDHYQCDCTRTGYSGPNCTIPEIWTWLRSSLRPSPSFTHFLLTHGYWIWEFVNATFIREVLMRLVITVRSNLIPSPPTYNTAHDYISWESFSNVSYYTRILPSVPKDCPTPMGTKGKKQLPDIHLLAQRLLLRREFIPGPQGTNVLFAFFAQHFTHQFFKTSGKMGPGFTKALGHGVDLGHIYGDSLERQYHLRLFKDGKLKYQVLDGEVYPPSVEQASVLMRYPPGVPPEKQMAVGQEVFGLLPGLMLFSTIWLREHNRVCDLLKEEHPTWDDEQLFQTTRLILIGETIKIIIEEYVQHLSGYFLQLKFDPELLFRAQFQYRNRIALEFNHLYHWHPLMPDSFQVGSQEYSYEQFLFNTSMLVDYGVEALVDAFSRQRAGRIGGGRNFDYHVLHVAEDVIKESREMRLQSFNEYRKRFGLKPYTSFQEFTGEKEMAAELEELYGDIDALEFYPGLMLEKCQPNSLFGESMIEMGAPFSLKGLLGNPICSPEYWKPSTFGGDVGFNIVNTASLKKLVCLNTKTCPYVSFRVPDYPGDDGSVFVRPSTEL
Description: (§1) ARBL/ARBC Whole Cell 5-Lipoxygenase and Cyclooxygenase Assays
(§2) The rat basophilic leukemia cell line (RBL-1) was obtained from the American Type Culture Collection (Rockville, Md.).
(§3) Radioimmuno assay (RIA) kits of LTB4 and PGF2α were obtained from Amersham (Arlington Heights, Ill.) and Seragen (Boston, Mass.) respectively.
(§4) Cells are harvested by centrifugation. They are washed with cold phosphate buffered saline pH 7.4 (PBS; NaCl, 7.1 g; Na2 PO4, 1.15 g; KH2 PO4, 0.2 g; and KCl, 0.2 g/l). […] Calcium ionophore A23187 (5 μM) is added and cells are incubated for seven minutes at 37° C. The reaction is stopped by chilling the tubes on ice for ten minutes. Cells are separated by centrifugation and the supernatant is stored at -20°. Aliquots (100 μl) are analyzed for LTB4 and PGF2α using radioimmuno assay kits as provided by the supplier.

5-Lipoxygenase = target: T2, 5-Lipoxygenase (Rattus norvegicus, UniProt P12527); experiment: ARBL: RBL-1 whole cell 5-lipoxygenase assay (inhibition of LTB4 formation); assay type: cell-based; conditions: RBL-1 cells, A23187 5 μM
T2 construct: host or cells: RBL-1 (rat basophilic leukemia)
T2 sequence (P12527 1-673): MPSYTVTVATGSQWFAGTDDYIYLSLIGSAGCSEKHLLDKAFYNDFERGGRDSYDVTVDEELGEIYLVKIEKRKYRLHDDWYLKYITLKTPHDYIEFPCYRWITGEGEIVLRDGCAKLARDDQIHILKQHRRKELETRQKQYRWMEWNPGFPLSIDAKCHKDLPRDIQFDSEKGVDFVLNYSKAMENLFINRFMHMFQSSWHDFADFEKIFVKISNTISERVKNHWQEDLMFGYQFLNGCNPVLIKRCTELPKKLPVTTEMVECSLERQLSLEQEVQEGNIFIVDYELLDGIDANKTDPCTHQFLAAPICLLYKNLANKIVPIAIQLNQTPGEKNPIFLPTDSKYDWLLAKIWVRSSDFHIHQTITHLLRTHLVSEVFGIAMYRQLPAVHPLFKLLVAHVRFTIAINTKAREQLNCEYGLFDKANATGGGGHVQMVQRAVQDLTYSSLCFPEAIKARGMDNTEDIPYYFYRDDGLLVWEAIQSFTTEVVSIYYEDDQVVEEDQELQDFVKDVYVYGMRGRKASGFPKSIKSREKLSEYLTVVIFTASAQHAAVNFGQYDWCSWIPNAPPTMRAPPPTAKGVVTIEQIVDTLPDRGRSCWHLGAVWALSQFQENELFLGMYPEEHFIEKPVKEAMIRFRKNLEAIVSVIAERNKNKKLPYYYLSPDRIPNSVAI
Experimental: as §1, §2, §3
RBL-1 cells are grown in suspension culture in Eagle's minimum essential medium supplemented with 12% fetal bovine serum at 37° C. in an incubator supplied with air-5% carbon dioxide. Cells are harvested by centrifugation. They are washed with cold phosphate buffered saline pH 7.4 (PBS; NaCl, 7.1 g; Na2 PO4, 1.15 g; KH2 PO4, 0.2 g; and KCl, 0.2 g/l). Cells are finally suspended in PBS containing 1.0 mM calcium at a density of 2×10^6 cells/ml. Cells are incubated with and without test agent (in DMSO) (1% DMSO is without effect on arachidonic acid metabolism) for ten minutes at room temperature. Calcium ionophore A23187 (5 μM) is added and cells are incubated for seven minutes at 37° C. The reaction is stopped by chilling the tubes on ice for ten minutes. Cells are separated by centrifugation and the supernatant is stored at -20°. Aliquots (100 μl) are analyzed for LTB4 and PGF2α using radioimmuno assay kits as provided by the supplier.

[2] = tested on: Mycobacterium-induced rat footpad edema; experiment: Mycobacterium-induced rat footpad edema (MFE) assay; assay type: in vivo; conditions: swelling at 72 h; for ED40: Rattus norvegicus, po, probit analysis, read-out: MFE ID40 (dose at which swelling is inhibited by 40%)
Experimental: Mycobacterium - Induced Rat Footpad Edema Assay (MFE): Protocol
Myobacterium butyricum (5 mg/ml) is suspended in paraffin oil by sonication for ten minutes in an ice bath. Footpad edema is induced on Day 0 by injecting 0.1 ml of the Mycobacterium mixture into the left hindpaw of lightly anesthetized rats. Swelling in the injected hindpaw is determined by mercury plethysmography seventy-two hours after injection. Groups of rats are treated with test compounds (suspended in 0.5% hydroxypropyl methylcellulose with 0.2% Tween-80) or vehicle one hour before Myobacterium injection and on Days 1 and 2. Inhibition of swelling is determined by comparing the change in hindpaw volume in compound- and vehicle-treated rats. An ID40 (the dose at which swelling is inhibited by 40%) was calculated by probit analysis.

[3] = tested on: Carrageenan-induced rat foot paw edema; experiment: Carrageenan-induced rat foot paw edema (CFE-2) assay; assay type: in vivo; conditions: read-out: CFE % Inhibition @ Dose; for inhibition in vivo at 30 mg/kg: 30 mg/kg PO; for inhibition in vivo at 30 mg/kg / inhibition in vivo at 10 mg/kg: 1 h before carrageenan, edema at 5 h; for inhibition in vivo at 10 mg/kg: 10 mg/kg PO
Experimental: Carrageenan-Induced Rat Foot Paw Edema-2 (CFE-2) Assay: Protocol
Carrageenan solution (1% w/v) is prepared by dissolving 100 mg carrageenan (Marine Colloidal Div., Springfield, N.J.) in 10 ml of sterile saline (0.9%) solution (Travenol). The solution is vortexed for thirty to forty-five minutes. Animals are dosed with compound one hour before carrageenan challenge. Foot paw edema is induced by injecting 0.05 ml of the 1% carrageenan subcutaneously into the plantar portion of the right hind paw of each rat under light anesthesia. Initial foot paw volume is measured immediately following carrageenan challenge using mercury plethysmography (Buxco Electronics). Edema is measured five hours after carrageenan. The difference between the five-hour and the initial paw volume is expressed as delta edema. The delta edema for each test group of animals is used to calculate the percent inhibition of edema achieved by the compound at the test dose compared with the vehicle control group. The ID25 (the dose at which swelling is inhibited by 25%) was calculated by probit analysis for the dose at which a result of 25 percent inhibition occurs.

Cyclooxygenase [4] = experiment: ARBC: RBL-1 whole cell cyclooxygenase assay (inhibition of PGF2α formation); assay type: cell-based, rat; conditions: ARBL/ARBC IC50; >1.0 cyclooxygenase selective, <1.0 5-lipoxygenase selective
Description: as §1, §2, §3, §4

[5] = Gastric ulcerogenicity (UD); assay type: in vivo, Male outbred Wistar rats; conditions: rat, in vivo, po
Experimental: (§5) Gastric Ulcerogenicity (UD) Protocol
(§6) Male outbred Wistar rats (100-250 gms) were fasted for twenty-four hours. After fasting, test compounds were administered orally (in 2 ml/Kg of 0.5% hydroxypropyl methylcellulose) and the rats were denied access to food and water for six more hours. The rats were then sacrificed with CO2 so that the stomachs could be removed, opened along the greater curvature, and evaluated for the presence of gastric ulcers. Results are expressed as the percent of rats with gastric ulcers at a given dose.

gastric ulcers in rats = experiment: Gastric ulcerogenicity (UD); assay type: in vivo, Male outbred Wistar rats; conditions: 100 mg/kg PO, fasted rats, 6 h
Experimental: as §5, §6

Compound	% inhibition ARBC (RBL whole cell cyclooxygenase, PGF2α inhibition) (Cyclooxygenase [1])	IC50 (5-Lipoxygenase)	inhibition in vivo at 30 mg/kg [3]	inhibition in vivo at 10 mg/kg [3]	ED40 [2]	other results
CC1=C(CC(=O)N(C)O)c2cc(F)ccc2/C1=C\c1ccc([S+](C)[O-])cc1 (stereo not drawn) [Example 1, (Z)-6-fluoro-N-hydroxy-N,2-dimethyl-3-[[4-(methylsulfinyl)phenyl]methylene]-3H-indene-1-acetamide]	0%	1000 nM	15%	–	–	MFE % Inhibition @ Dose ([2]; 10 mg/kg PO): 30%
CONC(=O)CC1=C(C)/C(=C/c2ccc([S+](C)[O-])cc2)c2ccc(F)cc21 (stereo not drawn) [Example 2, (Z)-6-fluoro-N-methoxy-2-methyl-3-[[4-(methylsulfinyl)phenyl]methylene]-3H-indene-1-acetamide]	0%	26400 nM	–	–	–	–
CONC(=O)Cc1c(C)n(C(=O)c2ccc(Cl)cc2)c2ccc(OC)cc12 [Example 4, 1-(4-Chlorobenzoyl)-N,5-dimethoxy-2-methyl-1H-indole-3-acetamide]	–	24000 nM	–	40%	–	IC50 (Cyclooxygenase [1]): 200 nM; RATIO, selectivity of inhibition (Cyclooxygenase [4]): 120; TD50 at 6 h [5]: 42 mg/kg
COc1ccc2c(c1)c(CC(=O)O)c(C)n2C(=O)c1ccc(Cl)cc1 [Indomethacin, 1(p-chlorobenzoyl)-5-methoxy-2-methylindole-3-acetic acid, reference compound]	–	> 100000 nM	–	–	0.21 mg/kg	inhibition in vivo at 5 mg/kg ([3]; po, 5 h): 36%
CC1=C(CC(=O)NO)c2cc(F)ccc2/C1=C\c1ccc([S+](C)[O-])cc1 (stereo not drawn) [Example 2A, (Z)-6-fluoro-N-hydroxy-2-methyl-3-[[4-(methylsulfinyl)phenYl]methylene]-3H-indene-1-acetamide]	0%	12900 nM	31%	–	–	MFE % Inhibition @ Dose ([2]; 50 mg/kg PO): 53%
COc1ccc2c(c1)c(CC(=O)N(O)C(C)C)c(C)n2C(=O)c1ccc(Cl)cc1 [Example 5, 1-(4-Chlorobenzoyl)-N-hydroxy-5-methoxy-2-methyl-N-(1-methylethyl)-1H-indole-3-acetamide]	–	900 nM	–	27%	0.82 mg/kg	–
COc1ccc2c(c1)c(CC(=O)N(C)O)c(C)n2C(=O)c1ccc(Cl)cc1 [Example 3, 1-(4-Chlorobenzoyl)-N-hydroxy-5-methoxy-N,2-dimethyl-1H-indole-3-acetamide]	–	1400 nM	–	29%	< 2 mg/kg	percent of rats with gastric ulcers at a given dose (UD50 column) (gastric ulcers in rats): 10%
COc1ccc2c(c1)c(CC(=O)N(O)C1CCCCC1)c(C)n2C(=O)c1ccc(Cl)cc1 [Example 6, 1-(4-Chlorobenzoyl)-N-cyclohexyl-N-hydroxy-5-methoxy-2-methyl-1H-indole-3-acetamide]	–	1600 nM	–	22%	4.7 mg/kg	IC50 (Cyclooxygenase [1]): 100 nM; RATIO, selectivity of inhibition (Cyclooxygenase [4]): 16.0
COc1ccc2c(c1)c(CC(=O)NO)c(C)n2C(=O)c1ccc(Cl)cc1 [Oxametacin, reference compound]	–	7500 nM	46%	–	–	TD50 at 6 h [5]: 103 mg/kg
